Experimental data taken from patent US10681909B2, “Herbicidal triazoles” (FMC Corporation, priority 2014, dated 2020).

Key:
[1] = tested on: kochia; assay: Test C postemergence; format: in vivo, Kochia scoparia
Procedure, shortened: (§1)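 Test chemicals in a non-phytotoxic solvent mixture with surfactant were applied to pots of plants at 2 to 18 cm (1- to 4-leaf stage) for postemergence treatment, grown in a peat-based medium with vermiculite, starter nutrients and dolomitic limestone. Preemergence treatment was to seeds freshly planted in loam soil mixed with sand.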

[2] = tested on: galium; assay: Test C postemergence; format: in vivo, Galium aparine
Procedure, shortened: as §1

[3] = tested on: velvetleaf; assay: Test C postemergence; format: in vivo, Abutilon theophrasti
Procedure, shortened: as §1

[4] = tested on: morningglory; assay: Test C postemergence; format: in vivo, Ipomoea coccinea
Procedure, shortened: as §1

[5] = tested on: foxtail, giant; assay: Test A preemergence; format: in vivo, Setaria faberii; conditions: 0 to 100 scale (0 no effect, 100 complete control)
Procedure, shortened: (§2)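 Loam/sand soil mix; compound in non-phytotoxic solvent + surfactant. Pre: directed soil spray right after planting seed. Post: potted plants 2–10 cm, 1–2 leaf stage, sprayed with same formulation.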

[6] = tested on: wheat; assay: Test A postemergence; format: in vivo, Triticum aestivum; conditions: 0 to 100 scale (0 no effect, 100 complete control), approx. 10 d
Procedure, shortened: as §2

[7] = tested on: barnyardgrass; assay: Test A preemergence; format: in vivo, Echinochloa crus-galli; conditions: 0 to 100 scale (0 no effect, 100 complete control)
Procedure, shortened: as §2

[8] = tested on: ryegrass, Italian; assay: Test C postemergence; format: in vivo, Lolium multiflorum
Procedure, shortened: as §1

[9] = tested on: oilseed rape; assay: Test C postemergence; format: in vivo, Brassica napus
Procedure, shortened: as §1

[10] = tested on: foxtail, giant; assay: Test A postemergence; format: in vivo, Setaria faberii; conditions: 0 to 100 scale (0 no effect, 100 complete control), approx. 10 d
Procedure, shortened: as §2

[11] = tested on: sedge, umbrella; assay: Test B flooded paddy test; format: in vivo, Cyperus difformis; conditions: 250 g ai/ha, applied to paddy water at 2-leaf stage, visual rating after 13 to 15 d, scale 0 (no effect) to 100 (complete control)
Procedure, shortened: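 Pots were flooded to 3 cm above the soil at treatment, and compounds were applied directly into the paddy water. That depth was held throughout. After 13 to 15 d in a greenhouse, plants were rated visually against untreated controls.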

[12] = tested on: corn; assay: Test C postemergence; format: in vivo, Zea mays
Procedure, shortened: as §1

[13] = tested on: nutsedge, yellow; assay: Test C postemergence; format: in vivo, Cyperus esculentus
Procedure, shortened: as §1

[14] = tested on: pigweed; assay: Test A postemergence; format: in vivo, Amaranthus retroflexus; conditions: 0 to 100 scale (0 no effect, 100 complete control), approx. 10 d
Procedure, shortened: as §2

[15] = tested on: johnsongrass; assay: Test C postemergence; format: in vivo, Sorghum halepense
Procedure, shortened: as §1

[16] = tested on: barnyardgrass; assay: Test A postemergence; format: in vivo, Echinochloa crus-galli; conditions: 0 to 100 scale (0 no effect, 100 complete control), approx. 10 d
Procedure, shortened: as §2

[17] = tested on: crabgrass, large; assay: Test C postemergence; format: in vivo, Digitaria sanguinalis
Procedure, shortened: as §1

[18] = tested on: barnyardgrass; assay: Test C postemergence; format: in vivo, Echinochloa crus-galli
Procedure, shortened: as §1

[19] = tested on: blackgrass; assay: Test C postemergence; format: in vivo, Alopecurus myosuroides
Procedure, shortened: as §1

[20] = tested on: waterhemp; assay: Test C postemergence; format: in vivo, Amaranthus rudis
Procedure, shortened: as §1

Structure (SMILES): COc1nc(-c2ccccc2)nn1Cc1ccnc(C(F)(F)F)c1 [Compound 32]
- Plant response rating (scale of 0 to 100 where 0 is no effect and 100 is complete control) ([1]; 31 g ai/ha): 80
- Plant response rating (scale of 0 to 100 where 0 is no effect and 100 is complete control) ([1]; 62 g ai/ha): 90
- Plant response rating (scale of 0 to 100 where 0 is no effect and 100 is complete control) ([1]; 125 g ai/ha): 90
- Plant response rating (scale of 0 to 100 where 0 is no effect and 100 is complete control) ([1]; 250 g ai/ha): 90
- Plant response rating (scale of 0 to 100 where 0 is no effect and 100 is complete control) ([2]; 31 g ai/ha): 20
- Plant response rating (scale of 0 to 100 where 0 is no effect and 100 is complete control) ([2]; 62 g ai/ha): 45
- Plant response rating (scale of 0 to 100 where 0 is no effect and 100 is complete control) ([2]; 125 g ai/ha): 60
- Plant response rating (scale of 0 to 100 where 0 is no effect and 100 is complete control) ([2]; 250 g ai/ha): 75
- Plant response rating (scale of 0 to 100 where 0 is no effect and 100 is complete control) ([3]; 31 g ai/ha): 15
- Plant response rating (scale of 0 to 100 where 0 is no effect and 100 is complete control) ([3]; 62 g ai/ha): 10
- Plant response rating (scale of 0 to 100 where 0 is no effect and 100 is complete control) ([3]; 125 g ai/ha): 20
- Plant response rating (scale of 0 to 100 where 0 is no effect and 100 is complete control) ([3]; 250 g ai/ha): 20
- Plant response rating (scale of 0 to 100 where 0 is no effect and 100 is complete control) ([4]; 31 g ai/ha): 80
- Plant response rating (scale of 0 to 100 where 0 is no effect and 100 is complete control) ([4]; 62 g ai/ha): 40
- Plant response rating (scale of 0 to 100 where 0 is no effect and 100 is complete control) ([4]; 125 g ai/ha): 80
- Plant response rating (scale of 0 to 100 where 0 is no effect and 100 is complete control) ([4]; 250 g ai/ha): 65
- Plant response rating, Foxtail, Giant ([5]; 125 g ai/ha): 90
- Plant response rating, Foxtail, Giant ([5]; 500 g ai/ha, approx. 10 d): 100
- Plant response rating, Wheat ([6]; 125 g ai/ha): 0
- Plant response rating, Wheat ([6]; 500 g ai/ha): 20
- Plant response rating, Barnyardgrass ([7]; 125 g ai/ha): 20
- Plant response rating, Barnyardgrass ([7]; 500 g ai/ha, approx. 10 d): 80
- Plant response rating (scale of 0 to 100 where 0 is no effect and 100 is complete control) ([8]; 31 g ai/ha): 0
- Plant response rating (scale of 0 to 100 where 0 is no effect and 100 is complete control) ([8]; 62 g ai/ha): 0
- Plant response rating (scale of 0 to 100 where 0 is no effect and 100 is complete control) ([8]; 125 g ai/ha): 0
- Plant response rating (scale of 0 to 100 where 0 is no effect and 100 is complete control) ([8]; 250 g ai/ha): 10
- Plant response rating (scale of 0 to 100 where 0 is no effect and 100 is complete control) ([9]; Oilsee Rape, 250 g ai/ha): 45
- Plant response rating (scale of 0 to 100 where 0 is no effect and 100 is complete control) ([9]; Oilseed Rape, 31 g ai/ha): 20
- Plant response rating (scale of 0 to 100 where 0 is no effect and 100 is complete control) ([9]; Oilseed Rape, 62 g ai/ha): 5
- Plant response rating (scale of 0 to 100 where 0 is no effect and 100 is complete control) ([9]; Oilseed Rape, 125 g ai/ha): 10
- Plant response rating, Foxtail, Giant ([10]; 125 g ai/ha): 60
- Plant response rating, Foxtail, Giant ([10]; 500 g ai/ha): 90
- Plant response rating, Sedge, Umbrella, Flood [11]: 75
- Plant response rating (scale of 0 to 100 where 0 is no effect and 100 is complete control) ([12]; 31 g ai/ha): 10
- Plant response rating (scale of 0 to 100 where 0 is no effect and 100 is complete control) ([12]; 62 g ai/ha): 20
- Plant response rating (scale of 0 to 100 where 0 is no effect and 100 is complete control) ([12]; 125 g ai/ha): 25
- Plant response rating (scale of 0 to 100 where 0 is no effect and 100 is complete control) ([12]; 250 g ai/ha): 35
- Plant response rating (scale of 0 to 100 where 0 is no effect and 100 is complete control) ([13]; 31 g ai/ha): 10
- Plant response rating (scale of 0 to 100 where 0 is no effect and 100 is complete control) ([13]; 62 g ai/ha): 20
- Plant response rating (scale of 0 to 100 where 0 is no effect and 100 is complete control) ([13]; 125 g ai/ha): 10
- Plant response rating (scale of 0 to 100 where 0 is no effect and 100 is complete control) ([13]; 250 g ai/ha): 25
- Plant response rating, Pigweed ([14]; 125 g ai/ha): 90
- Plant response rating, Pigweed ([14]; 500 g ai/ha): 100
- Plant response rating (scale of 0 to 100 where 0 is no effect and 100 is complete control) ([15]; 31 g ai/ha): 10
- Plant response rating (scale of 0 to 100 where 0 is no effect and 100 is complete control) ([15]; 62 g ai/ha): 10
- Plant response rating (scale of 0 to 100 where 0 is no effect and 100 is complete control) ([15]; 125 g ai/ha): 10
- Plant response rating (scale of 0 to 100 where 0 is no effect and 100 is complete control) ([15]; 250 g ai/ha): 10
- Plant response rating, Barnyardgrass ([16]; 125 g ai/ha): 30
- Plant response rating, Barnyardgrass ([16]; 500 g ai/ha): 60
- Plant response rating (scale of 0 to 100 where 0 is no effect and 100 is complete control) ([17]; 31 g ai/ha): 5
- Plant response rating (scale of 0 to 100 where 0 is no effect and 100 is complete control) ([17]; 62 g ai/ha): 10
- Plant response rating (scale of 0 to 100 where 0 is no effect and 100 is complete control) ([17]; 125 g ai/ha): 25
- Plant response rating (scale of 0 to 100 where 0 is no effect and 100 is complete control) ([17]; 250 g ai/ha): 25
- Plant response rating (scale of 0 to 100 where 0 is no effect and 100 is complete control) ([18]; 31 g ai/ha): 10
- Plant response rating (scale of 0 to 100 where 0 is no effect and 100 is complete control) ([18]; 62 g ai/ha): 15
- Plant response rating (scale of 0 to 100 where 0 is no effect and 100 is complete control) ([18]; 125 g ai/ha): 20
- Plant response rating (scale of 0 to 100 where 0 is no effect and 100 is complete control) ([18]; 250 g ai/ha): 20
- Plant response rating (scale of 0 to 100 where 0 is no effect and 100 is complete control) ([19]; 31 g ai/ha): 5
- Plant response rating (scale of 0 to 100 where 0 is no effect and 100 is complete control) ([19]; 62 g ai/ha): 5
- Plant response rating (scale of 0 to 100 where 0 is no effect and 100 is complete control) ([19]; 125 g ai/ha): 5
- Plant response rating (scale of 0 to 100 where 0 is no effect and 100 is complete control) ([19]; 250 g ai/ha): 15
- Plant response rating (scale of 0 to 100 where 0 is no effect and 100 is complete control) ([20]; 31 g ai/ha): 85
- Plant response rating (scale of 0 to 100 where 0 is no effect and 100 is complete control) ([20]; 62 g ai/ha): 90
- Plant response rating (scale of 0 to 100 where 0 is no effect and 100 is complete control) ([20]; 125 g ai/ha): 90
- Plant response rating (scale of 0 to 100 where 0 is no effect and 100 is complete control) ([20]; 250 g ai/ha): 98
